{"source": "the supplement of paper PMC10307832", "test_in_all_cases": "relative viability (nuclei count vs DMSO), 5 days (fraction); higher = more cells survive", "key": {"NCI-H1563": {"system": "NCI-H1563", "procedure,_shortened": "(§1)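 One day after seeding in 1536-well plates, lung cancer cell lines were dosed by pin tool. Dosing was either single-drug or a fixed anchor-drug dose plus five library-drug doses (not always all listed) in √10 steps. After 5 days, nuclei were stained in one fix-and-stain step and counted on 4× images, and relative viability is the nuclei count of treated wells over that of vehicle wells, given as the median of duplicate plates.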"}, "COR-L23": {"system": "COR-L23", "procedure,_shortened": "as §1"}, "NCI-H441": {"system": "NCI-H441", "procedure,_shortened": "as §1"}, "201T": {"system": "201T", "procedure,_shortened": "as §1"}, "HCC-15": {"system": "HCC-15", "procedure,_shortened": "as §1"}, "NCI-H647": {"system": "NCI-H647", "procedure,_shortened": "as §1"}, "NCI-H2023": {"system": "NCI-H2023", "procedure,_shortened": "as §1"}, "EPLC-272H": {"system": "EPLC-272H", "procedure,_shortened": "as §1"}, "NCI-H2405": {"system": "NCI-H2405", "procedure,_shortened": "as §1"}, "NCI-H1793": {"system": "NCI-H1793", "procedure,_shortened": "as §1"}, "NCI-H3122": {"system": "NCI-H3122", "procedure,_shortened": "as §1"}, "NCI-H2170": {"system": "NCI-H2170", "procedure,_shortened": "as §1"}, "LOU-NH91": {"system": "LOU-NH91", "procedure,_shortened": "as §1"}, "NCI-H322M": {"system": "NCI-H322M", "procedure,_shortened": "as §1"}, "PC-14": {"system": "PC-14", "procedure,_shortened": "as §1"}, "NCI-H2347": {"system": "NCI-H2347", "procedure,_shortened": "as §1"}, "NCI-H520": {"system": "NCI-H520", "procedure,_shortened": "as §1"}, "UMC-11": {"system": "UMC-11", "procedure,_shortened": "as §1"}, "H3255": {"system": "H3255", "procedure,_shortened": "as §1"}, "NCI-H1734": {"system": "NCI-H1734", "procedure,_shortened": "as §1"}}, "data": [{"smiles": "O=c1cc(N2CCOCC2)oc2c(-c3cccc4c3sc3ccccc34)cccc12", "note": "+ Cc1nc(NC(=O)N2CCC[C@H]2C(N)=O)sc1-c1ccnc(C(C)(C)C(F)(F)F)c1 [Alpelisib] (partner 2 µM)", "values": [{"measurement": "relative viability", "setting": "NCI-H1563; first compound 0.01 µM", "result": 0.917}, {"measurement": "relative viability", "setting": "NCI-H1563; first compound 0.03162 µM", "result": 0.858}, {"measurement": "relative viability", "setting": "NCI-H1563; first compound 0.1 µM", "result": 0.93}, {"measurement": "relative viability", "setting": "NCI-H1563; first compound 0.3162 µM", "result": 0.833}, {"measurement": "relative viability", "setting": "NCI-H1563; first compound 1 µM", "result": 0.844}, {"measurement": "relative viability", "setting": "COR-L23; first compound 0.01 µM", "result": 0.871}, {"measurement": "relative viability", "setting": "COR-L23; first compound 0.03162 µM", "result": 0.718}, {"measurement": "relative viability", "setting": "COR-L23; first compound 0.1 µM", "result": 0.922}, {"measurement": "relative viability", "setting": "COR-L23; first compound 0.3162 µM", "result": 0.795}, {"measurement": "relative viability", "setting": "COR-L23; first compound 1 µM", "result": 0.753}, {"measurement": "relative viability", "setting": "NCI-H441; first compound 0.01 µM", "result": 0.832}, {"measurement": "relative viability", "setting": "NCI-H441; first compound 0.03162 µM", "result": 0.658}, {"measurement": "relative viability", "setting": "NCI-H441; first compound 0.1 µM", "result": 0.792}, {"measurement": "relative viability", "setting": "NCI-H441; first compound 0.3162 µM", "result": 0.842}, {"measurement": "relative viability", "setting": "NCI-H441; first compound 1 µM", "result": 0.7}, {"measurement": "relative viability", "setting": "201T; first compound 0.01 µM", "result": 1}, {"measurement": "relative viability", "setting": "201T; first compound 0.03162 µM", "result": 0.994}, {"measurement": "relative viability", "setting": "201T; first compound 0.1 µM", "result": 1.07}, {"measurement": "relative viability", "setting": "201T; first compound 0.3162 µM", "result": 0.979}, {"measurement": "relative viability", "setting": "201T; first compound 1 µM", "result": 0.879}, {"measurement": "relative viability", "setting": "HCC-15; first compound 0.01 µM", "result": 0.87}, {"measurement": "relative viability", "setting": "HCC-15; first compound 0.03162 µM", "result": 0.92}, {"measurement": "relative viability", "setting": "HCC-15; first compound 0.1 µM", "result": 0.971}, {"measurement": "relative viability", "setting": "HCC-15; first compound 0.3162 µM", "result": 0.859}, {"measurement": "relative viability", "setting": "HCC-15; first compound 1 µM", "result": 0.828}, {"measurement": "relative viability", "setting": "NCI-H647; first compound 0.01 µM", "result": 1.18}, {"measurement": "relative viability", "setting": "NCI-H647; first compound 0.03162 µM", "result": 1.2}, {"measurement": "relative viability", "setting": "NCI-H647; first compound 0.1 µM", "result": 1.24}, {"measurement": "relative viability", "setting": "NCI-H647; first compound 0.3162 µM", "result": 1.11}, {"measurement": "relative viability", "setting": "NCI-H647; first compound 1 µM", "result": 0.913}, {"measurement": "relative viability", "setting": "NCI-H2023; first compound 0.01 µM", "result": 0.653}, {"measurement": "relative viability", "setting": "NCI-H2023; first compound 0.03162 µM", "result": 0.621}, {"measurement": "relative viability", "setting": "NCI-H2023; first compound 0.1 µM", "result": 0.618}, {"measurement": "relative viability", "setting": "NCI-H2023; first compound 0.3162 µM", "result": 0.532}, {"measurement": "relative viability", "setting": "NCI-H2023; first compound 1 µM", "result": 0.487}, {"measurement": "relative viability", "setting": "EPLC-272H; first compound 0.01 µM", "result": 0.955}, {"measurement": "relative viability", "setting": "EPLC-272H; first compound 0.03162 µM", "result": 0.957}, {"measurement": "relative viability", "setting": "EPLC-272H; first compound 0.3162 µM", "result": 1.03}, {"measurement": "relative viability", "setting": "EPLC-272H; first compound 1 µM", "result": 0.891}, {"measurement": "relative viability", "setting": "NCI-H2405; first compound 0.01 µM", "result": 0.895}, {"measurement": "relative viability", "setting": "NCI-H2405; first compound 0.03162 µM", "result": 0.885}, {"measurement": "relative viability", "setting": "NCI-H2405; first compound 0.1 µM", "result": 0.838}, {"measurement": "relative viability", "setting": "NCI-H2405; first compound 0.3162 µM", "result": 0.835}, {"measurement": "relative viability", "setting": "NCI-H2405; first compound 1 µM", "result": 0.827}, {"measurement": "relative viability", "setting": "NCI-H1793; first compound 0.01 µM", "result": 0.607}, {"measurement": "relative viability", "setting": "NCI-H1793; first compound 0.03162 µM", "result": 0.866}, {"measurement": "relative viability", "setting": "NCI-H1793; first compound 0.1 µM", "result": 0.7}, {"measurement": "relative viability", "setting": "NCI-H1793; first compound 0.3162 µM", "result": 0.705}, {"measurement": "relative viability", "setting": "NCI-H1793; first compound 1 µM", "result": 0.484}, {"measurement": "relative viability", "setting": "NCI-H3122; first compound 0.01 µM", "result": 0.868}, {"measurement": "relative viability", "setting": "NCI-H3122; first compound 0.03162 µM", "result": 0.729}, {"measurement": "relative viability", "setting": "NCI-H3122; first compound 0.1 µM", "result": 0.839}, {"measurement": "relative viability", "setting": "NCI-H3122; first compound 0.3162 µM", "result": 0.756}, {"measurement": "relative viability", "setting": "NCI-H3122; first compound 1 µM", "result": 0.713}, {"measurement": "relative viability", "setting": "NCI-H2170; first compound 0.01 µM", "result": 0.83}, {"measurement": "relative viability", "setting": "NCI-H2170; first compound 0.03162 µM", "result": 0.782}, {"measurement": "relative viability", "setting": "NCI-H2170; first compound 0.1 µM", "result": 0.837}, {"measurement": "relative viability", "setting": "NCI-H2170; first compound 0.3162 µM", "result": 0.817}, {"measurement": "relative viability", "setting": "NCI-H2170; first compound 1 µM", "result": 0.735}, {"measurement": "relative viability", "setting": "LOU-NH91; first compound 0.01 µM", "result": 0.656}, {"measurement": "relative viability", "setting": "LOU-NH91; first compound 0.03162 µM", "result": 0.698}, {"measurement": "relative viability", "setting": "LOU-NH91; first compound 0.1 µM", "result": 0.726}, {"measurement": "relative viability", "setting": "LOU-NH91; first compound 0.3162 µM", "result": 0.759}, {"measurement": "relative viability", "setting": "LOU-NH91; first compound 1 µM", "result": 0.69}, {"measurement": "relative viability", "setting": "NCI-H322M; first compound 0.01 µM", "result": 0.804}, {"measurement": "relative viability", "setting": "NCI-H322M; first compound 0.03162 µM", "result": 0.721}, {"measurement": "relative viability", "setting": "NCI-H322M; first compound 0.3162 µM", "result": 0.82}, {"measurement": "relative viability", "setting": "NCI-H322M; first compound 1 µM", "result": 0.813}, {"measurement": "relative viability", "setting": "PC-14; first compound 0.01 µM", "result": 0.987}, {"measurement": "relative viability", "setting": "PC-14; first compound 0.03162 µM", "result": 0.891}, {"measurement": "relative viability", "setting": "PC-14; first compound 0.1 µM", "result": 0.931}, {"measurement": "relative viability", "setting": "PC-14; first compound 0.3162 µM", "result": 1.04}, {"measurement": "relative viability", "setting": "PC-14; first compound 1 µM", "result": 0.978}, {"measurement": "relative viability", "setting": "NCI-H2347; first compound 0.01 µM", "result": 1.17}, {"measurement": "relative viability", "setting": "NCI-H2347; first compound 0.03162 µM", "result": 1.04}, {"measurement": "relative viability", "setting": "NCI-H2347; first compound 0.1 µM", "result": 1.04}, {"measurement": "relative viability", "setting": "NCI-H2347; first compound 0.3162 µM", "result": 1}, {"measurement": "relative viability", "setting": "NCI-H2347; first compound 1 µM", "result": 1.02}, {"measurement": "relative viability", "setting": "NCI-H520; first compound 0.01 µM", "result": 0.997}, {"measurement": "relative viability", "setting": "NCI-H520; first compound 0.03162 µM", "result": 1.09}, {"measurement": "relative viability", "setting": "NCI-H520; first compound 0.1 µM", "result": 0.915}, {"measurement": "relative viability", "setting": "NCI-H520; first compound 0.3162 µM", "result": 0.841}, {"measurement": "relative viability", "setting": "NCI-H520; first compound 1 µM", "result": 0.996}, {"measurement": "relative viability", "setting": "UMC-11; first compound 0.01 µM", "result": 0.995}, {"measurement": "relative viability", "setting": "UMC-11; first compound 0.03162 µM", "result": 1.01}, {"measurement": "relative viability", "setting": "UMC-11; first compound 0.1 µM", "result": 0.986}, {"measurement": "relative viability", "setting": "UMC-11; first compound 0.3162 µM", "result": 0.979}, {"measurement": "relative viability", "setting": "UMC-11; first compound 1 µM", "result": 0.872}, {"measurement": "relative viability", "setting": "H3255; first compound 0.01 µM", "result": 0.681}, {"measurement": "relative viability", "setting": "H3255; first compound 0.03162 µM", "result": 0.698}, {"measurement": "relative viability", "setting": "H3255; first compound 0.1 µM", "result": 0.784}, {"measurement": "relative viability", "setting": "H3255; first compound 0.3162 µM", "result": 0.685}, {"measurement": "relative viability", "setting": "H3255; first compound 1 µM", "result": 0.768}, {"measurement": "relative viability", "setting": "NCI-H1734; first compound 0.01 µM", "result": 0.7}, {"measurement": "relative viability", "setting": "NCI-H1734; first compound 0.03162 µM", "result": 0.727}, {"measurement": "relative viability", "setting": "NCI-H1734; first compound 0.1 µM", "result": 0.686}, {"measurement": "relative viability", "setting": "NCI-H1734; first compound 0.3162 µM", "result": 0.698}, {"measurement": "relative viability", "setting": "NCI-H1734; first compound 1 µM", "result": 0.623}]}]}
